In the supplement of paper PMC10307832:

Compound: COC1=C(C=C(C=C1)C2=CC3=NC=CN3C(=N2)NC4=C(C=CC=N4)C(=O)N)OC [BAY61-3606] + CCNC(=O)c1noc(-c2cc(C(C)C)c(O)cc2O)c1-c1ccc(CN2CCOCC2)cc1 [Luminespib] (partner 0.01 µM)
Experiment: relative viability (nuclei count vs DMSO), 5 days (fraction); higher = more cells survive
Conditions: first compound 2 µM
In short: (§1)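 Relative viability equals treated-well nuclei counts divided by vehicle-well nuclei counts. Counts came from 4× images of lung cancer cell lines grown in 1536-well plates for 5 days after pin-tool dosing on the day after seeding. Dosing used one drug alone or a fixed anchor-drug dose plus five library-drug doses (not always all listed) in √10 steps, and values are medians of duplicate plates.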

Row | Cell Line | relative viability
1 | EKVX | 0.843

Compound: COc1cccc2c1C(=O)c1c(O)c3c(c(O)c1C2=O)C[C@@](O)(C(=O)CO)C[C@@H]3O[C@H]1C[C@H](N)[C@H](O)[C@H](C)O1 [Doxorubicin] + Cc1cc(Nc2cc(N3CCN(C)CC3)nc(Sc3ccc(NC(=O)C4CC4)cc3)n2)n[nH]1 [Tozasertib] (partner 0.1 µM)
Experiment: as above
Conditions: first compound 0.001 µM
In short: as §1

Row | Cell Line | relative viability
2 | BEN | 0.587
3 | HARA | 0.112
4 | SW 900 | 0.543
5 | HCC-827 | 0.45
6 | NCI-H520 | 0.409
7 | LOU-NH91 | 0.638
8 | NCI-H2023 | 0.351
9 | A-427 | 0.241
10 | NCI-H647 | 0.305
11 | PC-3 [JPC-3] | 0.887
12 | NCI-H1755 | 0.605
13 | NCI-H650 | 0.908
14 | NCI-H3122 | 0.339
15 | NCI-H1395 | 0.791
16 | 201T | 0.924
17 | NCI-H1975 | 0.745
18 | HOP-62 | 0.376
19 | NCI-H2405 | 0.847
20 | NCI-H1355 | 0.632
21 | NCI-H838 | 0.281
22 | CAL-12T | 0.339
23 | NCI-H1666 | 0.62
24 | EPLC-272H | 0.423
25 | NCI-H2347 | 0.62
26 | NCI-H1915 | 0.481
27 | NCI-H1437 | 0.411
28 | NCI-H460 | 0.419
29 | NCI-H2085 | 0.815
30 | NCI-H1944 | 0.24
31 | EKVX | 0.35

Same assay, conditions: first compound 0.003162 µM

Row | Cell Line | relative viability
32 | BEN | 0.564
33 | HARA | 0.126
34 | SW 900 | 0.491
35 | HCC-827 | 0.391
36 | NCI-H520 | 0.432
37 | LOU-NH91 | 0.644
38 | NCI-H2023 | 0.378
39 | A-427 | 0.215
40 | NCI-H647 | 0.181
41 | PC-3 [JPC-3] | 0.888
42 | NCI-H1755 | 0.556
43 | NCI-H650 | 0.736
44 | NCI-H3122 | 0.375
45 | NCI-H441 | 0.612
46 | NCI-H1395 | 0.724
47 | 201T | 0.955

Row | Cell Line | relative viability
48 | NCI-H1975 | 0.711
49 | HOP-62 | 0.414
50 | NCI-H2405 | 0.759
51 | NCI-H1355 | 0.508
52 | NCI-H838 | 0.306
53 | CAL-12T | 0.283
54 | NCI-H1666 | 0.547
55 | EPLC-272H | 0.401
56 | NCI-H2347 | 0.551
57 | NCI-H1915 | 0.439
58 | NCI-H1437 | 0.414
59 | NCI-H460 | 0.388
60 | NCI-H2085 | 0.829
61 | HCC-15 | 0.428
62 | NCI-H1944 | 0.267
63 | EKVX | 0.434

Same assay, conditions: first compound 0.01 µM

Row | Cell Line | relative viability
64 | BEN | 0.576
65 | HARA | 0.241
66 | SW 900 | 0.596
67 | HCC-827 | 0.407
68 | NCI-H520 | 0.434
69 | LOU-NH91 | 0.71
70 | NCI-H2023 | 0.294
71 | A-427 | 0.183
72 | NCI-H647 | 0.431
73 | PC-3 [JPC-3] | 0.915
74 | NCI-H1755 | 0.576
75 | NCI-H650 | 0.784
76 | NCI-H3122 | 0.335
77 | NCI-H441 | 0.511
78 | NCI-H1395 | 0.89
79 | 201T | 0.949

Row | Cell Line | relative viability
80 | NCI-H1975 | 0.664
81 | HOP-62 | 0.402
82 | NCI-H2405 | 0.74
83 | NCI-H1355 | 0.52
84 | NCI-H838 | 0.261
85 | CAL-12T | 0.257
86 | NCI-H1666 | 0.47
87 | EPLC-272H | 0.238
88 | NCI-H2347 | 0.736
89 | NCI-H1915 | 0.452
90 | NCI-H1437 | 0.405
91 | NCI-H460 | 0.264
92 | NCI-H2085 | 0.919
93 | HCC-15 | 0.454
94 | NCI-H1944 | 0.231
95 | EKVX | 0.383

Same assay, conditions: first compound 0.03162 µM

Row | Cell Line | relative viability
96 | BEN | 0.469
97 | HARA | 0.128
98 | SW 900 | 0.456
99 | HCC-827 | 0.416
100 | NCI-H520 | 0.343
101 | LOU-NH91 | 0.638
102 | NCI-H2023 | 0.157
103 | A-427 | 0.238
104 | NCI-H647 | 0.18
105 | PC-3 [JPC-3] | 0.866
106 | NCI-H1755 | 0.552
107 | NCI-H650 | 0.582
108 | NCI-H3122 | 0.169
109 | NCI-H441 | 0.249
110 | NCI-H1395 | 0.65
111 | 201T | 0.927

Row | Cell Line | relative viability
112 | NCI-H1975 | 0.303
113 | HOP-62 | 0.352
114 | NCI-H2405 | 0.693
115 | NCI-H1355 | 0.443
116 | NCI-H838 | 0.274
117 | CAL-12T | 0.207
118 | NCI-H1666 | 0.385
119 | EPLC-272H | 0.26
120 | NCI-H2347 | 0.53
121 | NCI-H1915 | 0.41
122 | NCI-H1437 | 0.379
123 | NCI-H460 | 0.185
124 | NCI-H2085 | 0.796
125 | HCC-15 | 0.201
126 | NCI-H1944 | 0.235
127 | EKVX | 0.415

Same assay, conditions: first compound 0.1 µM

Row | Cell Line | relative viability
128 | BEN | 0.54
129 | HARA | 0.145
130 | SW 900 | 0.231
131 | HCC-827 | 0.432
132 | NCI-H520 | 0.413
133 | LOU-NH91 | 0.615
134 | NCI-H2023 | 0.0799
135 | A-427 | 0.213
136 | NCI-H647 | 0.125
137 | PC-3 [JPC-3] | 0.856
138 | NCI-H1755 | 0.598
139 | NCI-H650 | 0.63
140 | NCI-H3122 | 0.141
141 | NCI-H441 | 0.245
142 | NCI-H1395 | 0.799
143 | 201T | 0.924

Row | Cell Line | relative viability
144 | NCI-H1975 | 0.178
145 | HOP-62 | 0.405
146 | NCI-H2405 | 0.546
147 | NCI-H1355 | 0.598
148 | NCI-H838 | 0.226
149 | CAL-12T | 0.136
150 | NCI-H1666 | 0.343
151 | EPLC-272H | 0.506
152 | NCI-H2347 | 0.636
153 | NCI-H1915 | 0.437
154 | NCI-H1437 | 0.283
155 | NCI-H460 | 0.165
156 | NCI-H2085 | 0.829
157 | HCC-15 | 0.116
158 | NCI-H1944 | 0.239
